This is an account of results in patent US20220175734A1, “USING PARASYMPATHOMIMETIC DRUGS ALONE OR, IN COMBINATION WITH ONE OR MORE ALPHA AGONISTS IN PSEUDOPHAKIC PATIENTS, TO CREATE MULTI-FOCALITY” (Visus Therapeutics, Inc., priority 2019, published 2022).

The test system of series [1] is naturally emmetropic and presbyopic subjects. Put plainly: Example 13 crossover trial, combined vs separate carbachol and brimonidine drops: near visual acuity (Rosenbaum chart, Jaeger notation) (Table 13). The following applies: for NVA 1-h / NVA 2-h / NVA 4-h / NVA 8-h / NVA Pre-treatment: mean ± SD, ten subjects; for NVA Pre-treatment: before treatment. It counts as in vivo, human. The source says: (§1) Participants were randomly selected volunteers. […] None of the patients included in the study had received any topical medication that could cause pupil mydriasis or miosis. […] All procedures followed were in accordance with the ethical standards of the responsible committee on human experimentation.
(§2) The 3% carbachol drops included 50 ppm of benzalkonium chloride.

For series [2] the test system is unchanged. Put plainly: Example 13 crossover trial: pupil size (Colvard infrared pupilometer) (Table 13). It counts as in vivo, human. Conditions: for PS 1-h / PS 2-h / PS 4-h / PS 8-h / PS Pre-treatment: mean pupil size, ten subjects; for PS Pre-treatment: before treatment.
Text: as §1, §2

For series [3], the system named is presbyopia subjects. Put plainly: Example 8 dose range studies: adverse symptoms, tolerability and satisfaction survey. It counts as in vivo, human. From the text: The survey asked the patients whether they would use the drops again.
The test system of series [4] is presbyopia subjects. Put plainly: Example 8 dose range studies of carbachol and pilocarpine with or without brimonidine: near LogMAR visual acuity.
Protocol: Dose range studies were performed for carbachol and pilocarpine.
Both Groups 1 and 2 received the same pre- and post-treatment work-up and measurements: Age, gender, initial pupil size, and near vision acuity (NVA) were documented. Subjects' NVA was measured post treatment at 1, 2, 4, and 8 hours, at the same room illumination Any adverse symptoms and subject satisfaction with near and distance vision were documented.
A short description of series [5]: Stability of pilocarpine at neutral pH. It counts as physicochemical. Conditions: needs about pH 5.
The test system of a further series is presbyopic subjects. Conditions: subjects receiving brimonidine drops.
In a further series the test system is emmetropic presbyopes. Conditions: Group 1.
For another series, the system named is hyperopic presbyopes. The experiment in a line: Example 6 masked study: near visual acuity (Jaeger Eye Chart), Group 3, both eyes (Tables 9, 10).
The next series deals with myopic presbyopes. The following applies: Group 2.
The test system of series [6] is naturally emmetropic and presbyopic subjects. The following applies: combination, separate, brimonidine alone, carbachol alone; FIG. 11. How it is done: Participants were volunteers selected at random.
The study used standard Snellen projector chart to measure distance visual acuity. Near visual acuity was assessed at 40 cm using Jaeger (J) Eye Chart. Statistical analysis was performed using the Student's t-test and p value of less than 0.05 was considered statistically significant. Data was expressed as mean, range, and standard deviation (SD).

Series [7] has as its system patients suffering from presbyopia. The experiment in a line: Example 4 preliminary evaluation: near visual acuity after pilocarpine alone or with brimonidine (Table 1 dosages, FIG. 1). It counts as in vivo, human. Conditions: individual patients. The source says: Initially, 10 patients were selected for preliminary evaluation. […] All six dosages provided some (varying) initial improvement in visual acuity. However, the effect of formulations containing pilocarpine alone appears to wear out fairly quickly whereas it takes longer time for effects of formulations containing both drugs to wear out.

For series [8] the test system is unchanged. The experiment in a line: Table 11: pupil diameter after pilocarpine alone or pilocarpine plus brimonidine. Conditions: individual patients. It counts as in vivo, human.

Molecules are shown by their SMILES. Several values for one entry are separate records, joined by “and”; a condition that tells them apart may be missing. Equal entries are not always repeated.

Text for emmetropic presbyopes: (§3) The study evaluated in a blind study the efficacy of using of a parasympathomimetic drug of different concentrations together with an alpha agonist to create optically beneficial miosis to temporarily treat different types of presbyopia (emmetropic, myopic and hyperopic).
(§4) One hundred and seventy seven presbyopic subjects with a mean age of 49.8±3.9 years (range 41-57 years); 96 males and 81 females were recruited in this study. The participants in the study all gave written informed consent. […] During the study, the subjects were closely monitored and regularly asked to report on any ocular, systemic, or physiological reactions they experienced. […]
(§5) Initial pupil size and both near and distance visual acuities were documented before treatment and at 1, 2, 4, 8 and 10 hours after treatment at the same room illumination. Subjects were monitored and subjected to complete ocular examination including visual acuity evaluation and slit-lamp biomicroscopy after one week of treatment and monthly during the first three months to evaluate dosage, satisfaction, adverse effects and complications (for instance, retinal detachment, pigment dispersion, posterior synechiae and intraocular inflammation). […] Distance visual acuity was measured using the standard Snellen projector chart. […] Any adverse symptoms and subject satisfaction with near and distance vision were also monitored. […]
Text for hyperopic presbyopes: as §3, §4, §5
Text for myopic presbyopes: as §3, §4, §5

On to `C[N+](C)(C)CCOC(N)=O` [3% carbachol alone, carbachol], for which, in [1] (1 h post-treatment), the “mean near visual acuity (NVA)” value is 5.5 ± 1 J and the “NVA 1-h” value is listed as 5.5 ± 1 J. Further, in [1] (2 h post-treatment), the “mean near visual acuity (NVA)” value was 5.9 ± 0.8 J and the “NVA 2-h” value was 5.9 ± 0.8 J. Further, in series [1] (4 h post-treatment), the “mean near visual acuity (NVA)” value stood at 7 ± 1.2 J and the “NVA 4-h” value is on record as 7 ± 1.2 J. Moreover, in series [1] (8 h post-treatment), the “mean near visual acuity (NVA)” value is 7.5 ± 1 J and the “NVA 8-h” value was 7.5 ± 1 J. In addition, the “mean near visual acuity (NVA)” value in [1] (before treatment (baseline)) was found to be 8.6 ± 1.5 J. Also, the “mean near visual acuity (NVA) (target)” value in series [1] (hours 1-8, Snellen fraction, FIG. 25) is given as “never achieved an NVA of ≥20/40”. Besides, in series [1], the “NVA Pre-treatment” value turned out to be 8.6 ± 1.5 J. In series [2] (1 h post-treatment), the “mean pupil size (PS)” value is 2.8±0.3 mm and the “PS 1-h” value was found to be 2.8 ± 0.3 mm. In series [2] (2 h post-treatment), the “mean pupil size (PS)” value worked out at 3±0.3 mm and the “PS 2-h” value is given as 3 ± 0.3 mm. In [2] (4 h post-treatment), the “mean pupil size (PS)” value is recorded as 3.5±0.3 mm and the “PS 4-h” value stood at 3.5 ± 0.3 mm. In addition, in series [2] (8 h post-treatment), the “mean pupil size (PS)” value is given as 4±0.3 mm and the “PS 8-h” value is 4 ± 0.3 mm. In series [2] (before treatment (baseline)), the “mean pupil size (PS)” value worked out at 4.3±0.5 mm. In addition, the “mean pupil size (target)” value in [2] (hours 1-8, FIG. 24) was “never achieved the target pupil size”. Moreover, in series [2], the “PS Pre-treatment” value is 4.3 ± 0.5 mm.

For `C[N+](C)(C)CCOC(N)=O` [carbachol], the “tolerability / discomfort vs carbachol concentration” value in the series with presbyopia subjects [3] (over seven days, FIG. 15) was “caused some increased discomfort”. Besides, the duration in the series on presbyopia subjects [4] (in vivo) was 8 h.

For the molecule `CC[C@@H]1C(=O)OC[C@@H]1Cc1cncn1C` [pilocarpine], the burning entry with presbyopia subjects [3] (in vivo) is “burned”. Besides, the onset of effect entry in the series on presbyopia subjects [4] (pilocarpine vs carbachol) is listed as “more immediate effect”. Further, the duration entry with presbyopia subjects [4] (pilocarpine vs carbachol, in words) is “shorter duration”. For the same molecule, the “stability at neutral pH” value in [5] is recorded as “unstable at neutral pH”.

On to `Brc1c(NC2=NCCN2)ccc2nccnc12` [Brimonidine 0.2%, brimonidine], for which the “difference in mean NVA before treatment vs any time point after treatment” value was “no statistically significant difference” in series [1] (P>0.05), “No statistically significant difference” with emmetropic presbyopes, “No statistically significant difference” in the series on hyperopic presbyopes and “No statistically significant difference” with myopic presbyopes. In addition, in [1] (1 h post-treatment), the “NVA 1-h” value worked out at 7.7 ± 1.3 J. Moreover, in series [1] (2 h post-treatment), the “NVA 2-h” value was determined as 8.2 ± 1.3 J. For the same molecule, the “NVA 4-h” value in series [1] (4 h post-treatment) is recorded as 8.5 ± 1.4 J. For the same molecule, the “NVA 8-h” value in series [1] (8 h post-treatment) is listed as 8.6 ± 1.5 J. Further, the “NVA Pre-treatment” value in series [1] was determined as 8.6 ± 1.5 J. The “mild burning sensation, number of subjects” value with presbyopic subjects turned out to be 10 subjects. Also, the synergy result in the series on presbyopia subjects [4] (in vivo) is “synergistic with both carbachol and pilocarpine”. Further, the “mean change in near visual acuity (J), comparison of all groups” value in series [6] is given as “the least”. The “difference in mean PS before treatment vs any time point after treatment” value in series [2] (P>0.05) is given as “no statistically significant difference”. Further, in series [2] (mainly first hour after instillation, light luminance, not statistically significant (P>0.05)), the miotic effect result is “mild miotic effect”. Also, the “PS 1-h” value in series [2] (1 h post-treatment) is on record as 3.95 ± 0.5 mm. In series [2] (2 h post-treatment), the “PS 2-h” value is reported as 4.2 ± 0.4 mm. Further, the “PS 4-h” value in series [2] (4 h post-treatment) stood at 4.3 ± 0.5 mm. Also, the “PS 8-h” value in series [2] (8 h post-treatment) was determined as 4.3 ± 0.5 mm. In addition, in series [2], the “PS Pre-treatment” value stood at 4.3 ± 0.5 mm. Besides, the “effect on pupil size or NVA” value in [2] (with 50 ppm BAK) is recorded as “virtually no effect”.

`CC[C@@H]1C(=O)OC[C@@H]1Cc1cncn1C` [Pilo Alone]: in [7] (Pilo 0.5%), the “nVA(j) 1 hr” value was 3 j (2×) and 6 j and 5 j; the “nVA(j) 2 hrs” value was 5 j (2×) and 3 j (2×); the “nVA(j) 4 hrs” value is 5 j (3×) and 3 j. Also, in series [7] (Pilo 1%), the “nVA(j) 1 hr” value was 3 j (2×) and 2 j and 8 j; the “nVA(j) 2 hrs” value is 3 j and 2 j (2×) and 8 j; the “nVA(j) 4 hrs” value is 5 j (2×) and 3 j and 10 j. For the same molecule, in series [7] (before treatment), the “Pre-Treatment Near Va” value is 6 j (4×) and 5 j (4×) and 8 j (2×) and 10 j and 3 j. Further, in series [8] (Pilo 0.5%), the “pupil 1 hr” value was 2.5 and 3.8 and 3 (2×); the “pupil 2 hrs” value is 3 and 4 and 2.5 and 3.3; the “pupil 4 hrs” value is 3.3 and 4 and 3 and 4.2. In series [8] (Pilo 1%), the “pupil 1 hr” value was 2.5 (2×) and 1.5 and 3; the “pupil 2 hrs” value is 3 (2×) and 1.5 and 2.5; the “pupil 4 hrs” value was 4 (2×) and 2.5 and 3. The “pupil 4 hrs” value in series [8] (Pilo […]) amounted to 4. For the same molecule, in series [8] (before treatment, left eye), the “Pre-Treatment Pupil Diam O.S.” value was 4 (2×) and 4.3 and 3.5 (2×) and 5 and 3.9 and 3 and 4.5 (3×) and 5.4. Besides, the “Pre-Treatment Pupil Diam O.D.” value in series [8] (before treatment, right eye) was 4 (3×) and 3.5 (2×) and 5 and 4.3 and 3 and 4.5 (3×) and 5.5.
